How the values were obtained:
[1] = Ion-pairing screening using polymyxin B API; assay type: physicochemical; design: key to Reprecipitation: + details re-precipitation observed; − details no re-precipitation observed; key to Organic Dissolution: ++ details complete dissolution; + details non-complete dissolution; key to Precipitation: +++: + details qualitative observations of the amount of solid formed; ++: + details qualitative observations of the amount of solid formed; + details qualitative observations of the amount of solid formed; − details no solids formed; settings: for precipitation upon mixing and NC formation: FIG. 4, polymyxin; for Precipitation: polymyxin B API mixed with IP in water; for Reprecipitation: polymyxin B:IP organic solution diluted ten-fold in water; for Organic Dissolution: polymyxin B:IP pellet in organic solvent (THF)
Experimental: (§1) The fifteen ion pairing (IP) reagents listed above were screened to assess if hydrophobic API salt forms would be formed and would precipitate from solution. Ion pair and API drug properties were calculated with Molinspiration software (Molinspiration Cheminformatics, Slovakia). APIs were dissolved in water at 5 mg mL^−1 concentration and mixed with IPs dissolved in water at varying concentrations to yield different API to IP ratios. The screening process determines whether a particular IP may be used with a given API for NC formation.
(§2) In the case of pre-ion pairing, API and IP are mixed in water to form a water-insoluble precipitate (referred to as an API:IP complex). The water is then removed, and the API:IP complex is dissolved into an organic solvent (along with a block copolymer) for use in the organic stream in FNP. In this case, the API:IP complex is treated as a component in the organic stream of normal FNP. The screening process for the pre-ion paired method FNP involves four sequential tests. • 1. The first test examines the solubility of the IP agent. IP is added to DI water at a concentration that would be required for a 1:1 API:IP charge ratio if the API were dissolved at 5 mg mL^−1. (In this text the ratios are presented as charge ratios of API:IP.) Substantial […] in water is required for successful ion pairing. • 2. The second test examines whether an in situ API:IP complex can be formed in a single step. For example, The second test examines whether solids precipitate upon mixing of the aqueous IP solution with an aqueous API solution. Alternatively, IP in an organic, but water miscible, solution is mixed against the aqueous API solution. The final solution is checked visually to see if precipitation has occurred. In this test, the IP solution is at a concentration such that mixing equal volumes of IP solution and API solution will form a 1:1 API to IP charge ratio. Four API:IP ratios are investigated: 200 μL API solution is mixed with 100 μL IP solution for a 1:0.5 charge ratio; 200 μL API solution is mixed with 200 μL IP solution for a 1:1 charge ratio; 200 μL API solution is mixed with 400 μL IP solution for a 1:2 charge ratio; and 200 μL API solution is mixed with 800 μL IP solution for a 1:4 charge ratio. • 3. The third test examines whether the API:IP complex can be solubilized in the organic phase for subsequent FNP NC formation. Pellets of the precipitate formed in the second test are tested to see if they are soluble in a water-miscible organic solvent such as tetrahydrofuran (THF) or more polar solvents such as dimethyl sulfoxide (DMSO) or methanol (MeOH). For example, if precipitates were formed in the second test, the mixture can be centrifuged at 20800 rcf for 20 minutes, and the aqueous supernatant can be removed in order to recover pelleted precipitate. 200 μL of organic solvent can be added to the pellet; the solution can then be mixed to determine whether the pellet dissolves. • 4. The final (fourth) test assesses if the hydrophobic API:IP complex will re-precipitates when mixed with water, e.g., upon FNP mixing with water as the antisolvent. The organic solvent containing API:IP from the third test is diluted ten-fold in water, and precipitate formation is examined. If a precipitate forms, then the construct is suitable for use in FNP. In Situ Ion Pairing
(§3) Several water-soluble counter ion salts IPs were chosen for this investigation to determine the physical properties of the counter ions required for successful complex formation (FIG. 3). A range of carboxylate and sulfonate salt IPs whose acid forms have pKa ranging 5 to −1.9 were tested, as well as salts with a wide range of solubilities and LogP values as high as 7.6 or as low as −4.92. API was dissolved at 5 mg mL^−1 in water in 1× volume, and rapidly mixed with 1× volume of dissolved IP to give a final mixture containing a 1:1 API:IP charge ratio. Mixtures were visually observed to assess if precipitates rapidly formed.

[2] = Ion-pairing screening using gentamicin API; assay type: physicochemical; design: key to Reprecipitation: + details reprecipitation observed; − details no reprecipitation observed; key to Organic Dissolution: ++ details complete dissolution; + details non-complete dissolution; key to Precipitation: +++: + details qualitative observations of the amount of solid formed; ++: + details qualitative observations of the amount of solid formed; + details qualitative observations of the amount of solid formed; − details no solids formed; settings: for Precipitation: gentamicin API mixed with IP in water; for Reprecipitation: gentamicin:IP organic solution diluted ten-fold in water; for Organic Dissolution: gentamicin:IP pellet in organic solvent (THF)
Experimental: as §1, §2
as §3, with “formed. […]” for “formed.”

[3] = ambient temperature; cited from earlier work
[4] = API release from NCs by dialysis (BCA assay); assay type: physicochemical
Experimental: Drug concentrations were determined with the bicinchoninic acid (BCA) assay (Spectramax i3x, Molecular Devices) with absorbance measurements at 562 nm, using a standard curve of the same drug (unencapsulated) as the reference. API fractional release was determined by dialyzing NC sample in 100-fold 1×PBS. […] The drug concentration in each aliquot was determined by the BCA assay at 562 nm. The released fraction is the API concentration at each time point divided by the initial API concentration before dialysis (Eq. 2).
API release rates from NCs are a critical determinant of dosing frequency, in vivo active concentrations, and overall therapeutic effectiveness. The release rates of polymyxin B were assessed by enclosing NCs in an 8 kDa MWCO dialysis bag and diluting into a thousand-fold excess volume of PBS to simulate an “open sink” condition at room temperature. Encapsulated polymyxin within dialysis bags was measured over time, using the BCA assay, to determine the amount of API that had been released (FIGS. 7A, 7B, and 7C).

[5] = Particle size and polydispersity by dynamic light scattering; assay type: physicochemical; settings: PCL5k-b-PEG5k NPs
cells = assay: Lysozyme activity after release (ability to lyse cells); assay type: biochemical
[6] = OVA with at least one charge equivalent of quaternary ammonium surfactant

Molecule | Precipitation [1] | Reprecipitation [1] | Organic Dissolution [1] | Precipitation [2] | further results
CCCCCCCCCCCCOS(=O)(=O)[O-].[Na+] [Sodium Dodecyl Sulfate, sodium dodecyl sulfate] | +++ | + | ++ | +++ | precipitation upon mixing and NC formation [1]: rapid precipitation and successful NC formation; Reprecipitation [2]: +; Organic Dissolution [2]: ++
CCCCCCCCCC(=O)[O-].[Na+] [Sodium Decanoate, sodium decanoate] | ++ | − |  | + | 
O=S(=O)([O-])CCS(=O)(=O)[O-].[Na+].[Na+] [Sodium 1,2-Ethanedisulfonate, sodium 1,2-ethanesulfonate] | − |  |  | − | 
O=S(=O)(O)c1ccccc1 [Benzenesulfonic Acid Monohydrate, benzenesulfonic acid monohydrate] | − |  |  | − | 
CCCCCCCCS(=O)(=O)[O-].O.[Na+] [Sodium 1-Octanesulfonate Monohydrate, sodium 1-octanesulfonate monohydrate] | +++ | − | ++ | ++ | Reprecipitation [2]: −; Organic Dissolution [2]: ++
CCCCCCCCCCCCCC(=O)[O-].[Na+] [Sodium Myristate, sodium myristate] | ++ |  |  | − | 
CCCCCCCC/C=C\CCCCCCCC(=O)O [Oleic acid, oleic acid] |  |  |  |  | solubility in water [3]: ~3e-07 g/g
sodium deoxycholate | +++ |  |  | ++ | 
CCCCCC(=O)[O-].[Na+] [Sodium Hexanoate, Sodium hexanoate] | − |  |  | − | 
Mastoparan 7 [MP7, reference compound] |  |  |  |  | characteristic release time (time for 50% release) ([4]; MP7, NPs are MP7:SDS 1:1 PCL5k-b-PEG5k): 2.9 h
CC1(C)C2CC[C@]1(CS(=O)(=O)O)C(=O)C2 [(1R)-(-)-10-Camphorsulfonic Acid, (1R)-(−)-10-camphorsulfonic acid] | − |  |  | − | 
O=S(=O)([O-])c1ccc2ccccc2c1.[Na+] [Sodium 2-Naphthalenesulfonate, sodium 2-naphthalenesulfonate] | ++ | − | ++ | ++ | Reprecipitation [2]: −; Organic Dissolution [2]: ++
CCCCCCCS(=O)(=O)[O-].[Na+] [Sodium 1-Heptanesulfonate, sodium 1-heptanesulfonate] | + | − | + | − | 
CCCCCCCCCCCCc1ccc(S(=O)(=O)[O-])cc1.[Na+] [Sodium Dodecylbenzenesulfonate, sodium dodecylbenezenesulfonate] | +++ | + | ++ | +++ | precipitation upon mixing and NC formation [1]: rapid precipitation and successful NC formation; Reprecipitation [2]: +; Organic Dissolution [2]: ++
CCCCCCCCCCS(=O)(=O)[O-].[Na+] [Sodium 1-Decanesulfonate, sodium 1-decanesulfonate] | +++ | + | ++ | +++ | Reprecipitation [2]: +; Organic Dissolution [2]: ++
CCCCCCCC/C=C\CCCCCCCC(=O)[O-].[Na+] [Sodium Oleate, sodium oleate] | +++ | + | ++ | − | precipitation upon mixing and NC formation [1]: rapid precipitation and successful NC formation
Lysozyme [LYZ] |  |  |  |  | NP diameter ([5]; LYZ pre-formed with SDS or DXS): ~150 nm; PDI ([5]; LYZ pre-formed with SDS or DXS): < 0.2; LYZ released by 14 days ([4]; NPs with OA, 1:2 charge ratio): 20%; LYZ released by 14 days ([4]; NPs with OA, 1:4 charge ratio): 10%; LYZ released by 14 days ([4]; NPs with SDS, 1:1 charge ratio): 50%; released LYZ with activity equal to LYZ that was never encapsulated (cells; following release from NPs, over all formulations): up to 100%; released LYZ that was bioactive (cells; paired 1:1 with DXS): 100%; released LYZ that was bioactive (cells; paired 1:1 with OA): 100%; released LYZ that was bioactive (cells; paired 1:1 with SDS): approximately 60%; released LYZ that was bioactive (cells; paired 1:2 with DXS): approximately 60%; released LYZ that was bioactive (cells; paired 1:2 with OA): 100%; released LYZ that was bioactive (cells; paired 1:2 with SDS): < 10%; released LYZ that was bioactive (cells; paired 1:4 with DXS): approximately 60%; released LYZ that was bioactive (cells; paired 1:4 with OA): approximately 60%; released LYZ that was bioactive (cells; paired 1:4 with SDS): < 10%
Ovalbumin (protein, UniProt P01012 2-386, looked up, anionic protein, 385 amino acid residues, 43,000 Da) Ovalbumin: GSIGAASMEFCFDVFKELKVHHANENIFYCPIAIMSALAMVYLGAKDSTRTQINKVVRFDKLPGFGDSIEAQCGTSVNVHSSLRDILNQITKPNDVYSFSLASRLYAEERYPILPEYLQCVKELYRGGLEPINFQTAADQARELINSWVESQTNGIIRNVLQPSSVDSQTAMVLVNAIVFKGLWEKAFKDEDTQAMPFRVTEQESKPVQMMYQIGLFRVASMASEKMKILELPFASGTMSMLVLLPDEVSGLEQLESIINFEKLTEWTSSNVMEERKIKVYLPRMKMEEKYNLTSVLMAMGITDVFSSSANLSGISSAESLKISQAVHAAHAEINEAGREVVGSAEAGVDAASVSEEFRADHPFLFCIKHIATNAVLFFGRCVSP |  |  |  |  | NP diameter [5, 6]: ~150 nm; PDI [5, 6]: < 0.2

From patent US12357582B2, “Hydrophobic ion pairing and flash nanoprecipitation for formation of controlled-release nanocarrier formulations” (The Trustees of Princeton University, priority 2017, dated 2025)
